# Source: patent US20250332173A1, “COMPOUNDS AND METHODS FOR MODULATING NUCLEIC ACID SPLICING” (REMIX THERAPEUTICS INC., priority 2021, published 2025)
# Tested on: Target C
# Test: HiBiT protein abundance assay, Target C (Promega Nano-Glo HiBiT Lytic Detection System, knock-in K562 cell line)
# Assay type: cell-based, human
# Conditions: Homo sapiens, K562, 24 h, HiBiT K562 cell line, 24 hours, top dose 10 μM; read-out: Effect on protein abundance, Target C (IC50 category)
# Summary of the method: (§1)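 Protein abundance was read by Nano-Glo HiBiT lytic luminescence after 24 h compound exposure (10-point, threefold series from 10 μM final) of HiBiT knock-in K562 cells. Parental K562 served as baseline; the 50%-abundance concentration was interpolated from a four-parameter logistic fit.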
row,SMILES,IC50
1,"Cc1cn2cc(-c3ccc4c(c3)CCN(C3CCNCC3)C4=O)nc2c(C)n1 [Compound 221, 6-[6,8-dimethylimidazo[1,2-a]pyrazin-2-yl]-2-(piperidin-4-yl)-3,4-dihydroisoquinolin-1-one]",> 10000 nM
2,"Cc1c(O)c(-c2ncc3c(=O)n([C@H]4CCN[C@H](C)C4)ccc3n2)cc2cn(C)nc12 [Compound 1461, 2-(6-hydroxy-2,7-dimethyl-indazol-5-yl)-6-[(2R,4S)-2-methyl-4-piperidyl]pyrido[4,3-d]pyrimidin-5-one]",100 to 1000 nM
3,"Cc1c(O)c(-c2ncc3c(=O)n([C@@H]4CCN[C@@H](C)C4)ccc3n2)cc2cn(C)nc12 [Compound 1462, 2-(6-hydroxy-2,7-dimethyl-indazol-5-yl)-6-[(2S,4R)-2-methyl-4-piperidyl]pyrido[4,3-d]pyrimidin-5-one]",100 to 1000 nM
4,Cc1cn2cc(-c3cc(F)c4c(=O)n(C5CCNCC5)cnc4c3)cc(F)c2n1 [Compound 230],100 to 1000 nM
5,"Cc1c(O)c(-c2ncc3c(=O)n([C@H]4CC[C@@H](N(C)C)CC4)ccc3n2)cc2cn(C)nc12 [Compound 1460, 6-((1s,4s)-4-(dimethylamino)cyclohexyl)-2-(6-hydroxy-2,7-dimethyl-2H-indazol-5-yl)pyrido[4,3-d]pyrimidin-5(6H)-one]",1000 to 10000 nM
6,"Cc1cn2cc(-c3ccc4c(c3)CCN(C3CCNCC3)C4=O)cc(C)c2n1 [Compound 217, 6-[2,8-dimethylimidazo[1,2-a]pyridin-6-yl]-2-(piperidin-4-yl)-3,4-dihydroisoquinolin-1-one]",> 10000 nM
7,"Cc1cn2nc(-c3ccc4c(=O)n(C5CCN(CCO)C6(CC6)C5)ncc4n3)cc(C)c2n1 (centres unmarked) [Compound 1541, 2-(2,8-dimethylimidazo[1,2-b]pyridazin-6-yl)-6-[4-(2-hydroxyethyl)-4-azaspiro[2.5]octan-7-yl]pyrido-[2,3-d]pyridazin-5-one]",100 to 1000 nM
8,Cc1cc(-c2cc(F)c3c(=O)n(C4CCN(C)CC4)cnc3c2)cc2cn(C)nc12 [Compound 233],100 to 1000 nM
9,Cc1cn2cc(-c3ccc4c(c3)CCN(C3CCNCC3)C4=O)ncc2n1 [Compound 224],> 10000 nM
10,Cc1cn2cc(-c3ccc4c(=O)n(C5CCN(C)CC5)cnc4c3)cc(F)c2n1 [Compound 207],1000 to 10000 nM
11,Cc1cn2cc(-c3ccc4c(=O)n(C5CCN(C)CC5)cnc4c3F)cc(F)c2n1 [Compound 227],> 10000 nM
12,"Cc1c(O)c(-c2ncc3c(=O)n([C@H]4CC[C@H](N(C)C)CC4)ccc3n2)cc2cn(C)nc12 [Compound 1459, 6-((1r,4r)-4-(dimethylamino)cyclohexyl)-2-(6-hydroxy-2,7-dimethyl-2H-indazol-5-yl)pyrido[4,3-d]pyrimidin-5(6H)-one]",100 to 1000 nM
13,Cc1cn2cc(-c3ccc4c(=O)n(C5CCNC6(CC6)C5)cnc4c3)cc(F)c2n1 (centres unmarked) [Compound 236],1000 to 10000 nM
14,Cc1cn2nc(-c3cc(F)c4c(=O)n(C5CCN(C)CC5)cnc4c3)cc(C)c2n1 [Compound 242],< 100 nM
15,"Cc1cn2cc(-c3cc(F)c4c(=O)n(C5CCN(C)CC5)cnc4c3)cc(F)c2n1 [Compound 231, 5-fluoro-7-{8-fluoro-2-methylimidazo[1,2-a]pyridin-6-yl}-3-(1-methylpiperidin-4-yl)quinazolin-4-one]",100 to 1000 nM
16,Cc1nc2c(F)cc(-c3ccc4c(c3)CCN(C3CCNCC3)C4=O)cc2o1 [Compound 215],1000 to 10000 nM
17,Cc1cn2cc(-c3ccc4c(=O)n(C5CCNC(C)(C)C5)cnc4c3)cc(F)c2n1 (centres unmarked) [Compound 237],1000 to 10000 nM
18,Cc1cn2cc(-n3cnc4cc(N5CCNCC5)ccc4c3=O)cc(F)c2n1 [Compound 228],100 to 1000 nM
19,Cn1cc2cc(-c3ncc4c(=O)n([C@H]5CCNC5)ccc4n3)c(O)c(F)c2n1 [Compound 1465],100 to 1000 nM
20,Cc1cn2cc(-c3ccc4c(=O)n(C5CCNCC5)cnc4c3)cc(F)c2n1 [Compound 205],100 to 1000 nM
21,Cc1cn2nc(-n3cnc4cc(N5CCNCC5)ccc4c3=O)cc(C)c2n1 [Compound 241],1000 to 10000 nM

row,SMILES,IC50
1,"Cc1cc(-c2ccc3c(c2)CCN(C2CCNCC2)C3=O)cc2cn(C)nc12 [Compound 219, 6-(2,7-dimethylindazol-5-yl)-2-(piperidin-4-yl)-3,4-dihydroisoquinolin-1-one]",> 10000 nM
2,"Cc1cn2cc(-c3ccc4c(c3)CCN(C3CCNCC3)C4=O)cc(Cl)c2n1 [Compound 216, 6-[8-chloro-2-methylimidazo[1,2-a]pyridin-6-yl]-2-(piperidin-4-yl)-3,4-dihydroisoquinolin-1-one]",1000 to 10000 nM
3,CN1CCC(n2cnc3cc(-c4ccc5nn(C)cc5c4)ccc3c2=O)CC1 [Compound 208],> 10000 nM
4,"Cc1cn2cc(-c3ccc4c(c3)CCN(C3CCNCC3)C4=O)c(C)cc2n1 [Compound 218, 6-[2,7-dimethylimidazo[1,2-a]pyridin-6-yl]-2-(piperidin-4-yl)-3,4-dihydroisoquinolin-1-one]",1000 to 10000 nM
5,"Cc1cn2nc(-c3ccc4c(=O)n(C5C[C@@H](C)N[C@H](C)C5)ncc4n3)cc(C)c2n1 (stereo in doubt) [Compound 1537, 2-(2,8-dimethylimidazo[1,2-b]pyridazin-6-yl)-6-[(2R,6R)-2,6-dimethyl-4-piperidyl]pyrido[2,3-d]pyridazin-5-one]",100 to 1000 nM
6,"Cc1c(O)c(-c2ccc3c(=O)n([C@@H]4C[C@@H](C)N[C@@H](C)C4)ccc3n2)cc2cn(C)nc12 [Compound 1463, 6-[(2S,6R)-2,6-dimethyl-4-piperidyl]-2-(6-hydroxy-2,7-dimethyl-indazol-5-yl)-1,6-naphthyridin-5-one]",1000 to 10000 nM
7,Cc1cn2cc(-n3cnc4cc(N5CCN(C)CC5)ccc4c3=O)cc(F)c2n1 [Compound 229],> 10000 nM
8,Cc1nc2c(F)cc(-c3ccc4c(c3)CCN(C3CCNCC3)C4=O)cc2s1 [Compound 226],> 10000 nM
9,Cc1cc(-c2cc(F)c3c(=O)n(C4CCNCC4)cnc3c2)cc2cn(C)nc12 [Compound 232],100 to 1000 nM
10,"Cc1c(O)c(-c2ccc3c(=O)n([C@H]4C[C@@H](C)N[C@@H](C)C4)ccc3n2)cc2cn(C)nc12 [Compound 1464, 6-[(2S,6R)-2,6-dimethyl-4-piperidyl]-2-(6-hydroxy-2,7-dimethyl-indazol-5-yl)-1,6-naphthyridin-5-one]",100 to 1000 nM
11,Cc1cc(-c2ccc3c(=O)n(C4CCN(C)CC4)cnc3c2F)cc2cn(C)nc12 [Compound 235],> 10000 nM
12,Cc1cc(-c2ccc3c(=O)n(C4CCNCC4)cnc3c2F)cc2cn(C)nc12 [Compound 234],1000 to 10000 nM
13,"O=C1c2ccc(-c3cn[nH]c3)cc2CCN1C1CCNCC1 [Compound 220, 2-(piperidin-4-yl)-6-(1H-pyrazol-4-yl)-3,4-dihydroisoquinolin-1-one]",> 10000 nM
14,"Cc1cn2nc(-c3ccc4c(c3)CCN(C3CCNCC3)C4=O)cc2c(C)n1 [Compound 223, 6-[4,6-dimethylpyrazolo[1,5-a]pyrazin-2-yl]-2-(piperidin-4-yl)-3,4-dihydroisoquinolin-1-one]",> 10000 nM
15,"Cc1cn2nc(-c3ccc4c(c3)CCN(C3CCNCC3)C4=O)nc2c(C)n1 [Compound 222, 6-[6,8-dimethyl-[1,2,4]triazolo[1,5-a]pyrazin-2-yl]-2-(piperidin-4-yl)-3,4-dihydroisoquinolin-1-one]",1000 to 10000 nM
16,"Cc1cn2nc(-c3ccc4c(=O)n([C@H]5CC(C)N[C@@H](C)C5)ncc4n3)cc(C)c2n1 (stereo in doubt) [Compound 1538, 2-(2,8-dimethylimidazo[1,2-b]pyridazin-6-yl)-6-[(2S,6S)-2,6-dimethyl-4-piperidyl]pyrido[2,3-d]pyridazin-5-one]",100 to 1000 nM
17,Cn1cc2cc(-c3ccc4c(=O)n(C5CCNCC5)cnc4c3)cc(F)c2n1 [Compound 206],100 to 1000 nM
18,"Cc1cn2cc(-c3ncc4c(=O)n([C@H]5CCNC6(CC6)C5)ccc4n3)cc(F)c2n1 [Compound 1458, 6-[(7S)-4-azaspiro[2.5]octan-7-yl]-2-(8-fluoro-2-methyl-imidazo[1,2-a]pyridin-6-yl)pyrido[4,3-d]pyrimidin-5-one]",100 to 1000 nM
19,Cc1cn2cc(-c3ccc4c(=O)n(C5CCNCC5)cnc4c3F)cc(F)c2n1 [Compound 210],1000 to 10000 nM
20,CN1CCC(n2cnc3cc(-c4cc(F)c5nn(C)cc5c4)ccc3c2=O)CC1 [Compound 209],> 10000 nM
21,Cn1cc2cc(-c3ccc4c(c3)CCN(C3CCNCC3)C4=O)cc(F)c2n1 [Compound 225],> 10000 nM

# Tested on: Target C
# Test: HiBiT protein abundance assay, Target C HiBiT K562 cell line
# Assay type: cell-based
# Conditions: Homo sapiens; HiBiT lytic detection, modified K562 cells, 24 hours, top dose 10 μM; read-out: Effect on protein abundance, Target C (IC50)
# Summary of the method: as §1
row,SMILES,IC50
1,"Cc1c(O)c(-c2ncc3c(=O)n([C@@H]4CC[C@@H](N)C4)ccc3n2)cc2cn(C)nc12 [Compound 1476, 6-[(1R,3R)-3-aminocyclopentyl]-2-(6-hydroxy-2,7-dimethyl-indazol-5-yl)pyrido[4,3-d]pyrimidin-5-one]",1000 to 10000 nM
2,CNC12CCC(n3ccc4nc(-c5cc6cn(C)nc6c(C)c5O)ncc4c3=O)(CC1)C2 [Compound 1479],1000 to 10000 nM
3,Cn1cc2cc(-c3ncc4c(=O)n([C@@H]5CCNC5)ccc4n3)c(O)c(F)c2n1 [Compound 1466],100 to 1000 nM
4,CN1CCC(N(C)c2ccc3ncn(-c4cc(F)c5nn(C)cc5c4)c(=O)c3c2)CC1 [Compound 2199],> 10000 nM
5,Cc1cc(-c2ccc3ncn(C4CCN(C)CC4)c(=O)c3c2)cc2cn(C)nc12 [Compound 2170],> 10000 nM
6,"Cc1cn2nc(-c3ccc4c(=O)n(C5CC(C)N[C@H](C)C5)ncc4n3)cc(C)c2n1 (stereo in doubt) [Compound 1536, 2-(2,8-dimethylimidazo[1,2-b]pyridazin-6-yl)-6-[(2S,6R)-2,6-dimethyl-4-piperidyl]pyrido[2,3-d]pyridazin-5-one]",100 to 1000 nM
7,Cc1cn2nc(-c3ccc4c(=O)n([C@@H]5CCN(C)C6(CC6)C5)ncc4n3)cc(C)c2n1 [Compound 1534],< 100 nM
8,Cn1cc2cc(-n3cnc4ccc(N5CCNCC5)cc4c3=O)cc(F)c2n1 [Compound 2196],> 10000 nM
